According to patent publication US9302999B2, “Substituted triazoles as herbicides” (E. I. DU PONT DE NEMOURS AND COMPANY, priority 2012, dated 2016):

How the values were obtained:
Type in all cases: in vivo
[1] = test system: barnyardgrass (Echinochloa crus-galli); test: Test A pre-/postemergence: barnyardgrass; settings: for Barnyardgrass plant response rating: Postemergence; for Plant response rating, Barnyardgrass: Preemergence
In short: (§1)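 Whole-plant greenhouse assay in loam/sand. Preemergence directed soil spray plus simultaneous postemergence spray (one- to two-leaf stage, 2–10 cm). Rated visually ~10 days later, 0 = no effect, 100 = complete control.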

[2] = test system: wheat (Triticum aestivum); test: Test A pre-/postemergence: wheat; settings: for Wheat plant response rating: Postemergence; for Plant response rating, Wheat: Preemergence
In short: as §1

corn (Zea mays) = test: Test A pre-/postemergence: corn; settings: for Corn plant response rating: Postemergence; for Plant response rating, Corn: Preemergence
In short: as §1

rice (Oryza sativa) = test: Test C flooded paddy test: rice; settings: scale 0 to 100 (0 no effect, 100 complete control)
In short: (§2)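 Rating: visual, 0–100 (100 = complete control), versus untreated controls after 13 to 15 greenhouse days. Treatment went into paddy water held at 3 cm over the soil, on plants grown to two leaves.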

[3] = test system: barnyardgrass (Echinochloa crus-galli); test: Test C flooded paddy test: barnyardgrass; settings: scale 0 to 100 (0 no effect, 100 complete control)
In short: as §2

[4] = test system: velvetleaf (Abutilon theophrasti); test: Test A pre-/postemergence: velvetleaf; settings: for Velvetleaf plant response rating: Postemergence; for Plant response rating, Velvetleaf: Preemergence
In short: as §1

[5] = test system: foxtail, giant (giant foxtail, Setaria faberii); test: Test A pre-/postemergence: foxtail, giant; settings: for Foxtail, Giant plant response rating: Postemergence; for Plant response rating, Foxtail, Giant: Preemergence
In short: as §1

[6] = test system: crabgrass, large (large crabgrass, Digitaria sanguinalis); test: Test A pre-/postemergence: crabgrass, large; settings: for Crabgrass, Large plant response rating: Postemergence; for Plant response rating, Crabgrass, Large: Preemergence
In short: as §1

[7] = test system: morningglory (Ipomoea spp.); test: Test A pre-/postemergence: morningglory; settings: for Morningglory plant response rating: Postemergence; for Plant response rating, Morningglory: Preemergence
In short: as §1

[8] = test system: pigweed (Amaranthus retroflexus); test: Test A pre-/postemergence: pigweed; settings: for Pigweed plant response rating: Postemergence; for Plant response rating, Pigweed: Preemergence
In short: as §1

[9] = test system: sedge, umbrella (small-flower umbrella sedge, Cyperus difformis); test: Test C flooded paddy test: sedge, umbrella; settings: scale 0 to 100 (0 no effect, 100 complete control)
In short: as §2

[10] = test system: ducksalad (Heteranthera limosa); test: Test C flooded paddy test: ducksalad; settings: scale 0 to 100 (0 no effect, 100 complete control)
In short: as §2

[11] = 125 g ai/ha, 0 to 100 scale, 0 is no effect, 100 is complete control
[12] = 500 g ai/ha, visual rating on 0 to 100 scale (0 no effect, 100 complete control), approximately ten days
[13] = 125 g ai/ha, 0 to 100 scale (0 no effect, 100 complete control)
[14] = 500 g ai/ha, 0 to 100 scale, 0 is no effect, 100 is complete control
[15] = Flood (flooded paddy test), 62 g ai/ha, visual rating after 13 to 15 days
[16] = Flood (flooded paddy test), 125 g ai/ha, visual rating after 13 to 15 days
[17] = Flood (flooded paddy test), 250 g ai/ha, visual rating after 13 to 15 days
[18] = 125 g ai/ha, 0 to 100 scale where 0 is no effect and 100 is complete control

SMILES: COc1nn(-c2ccc(C(F)(F)F)cc2)nc1C(=O)c1ccnc(C(F)(F)F)c1 [Compound 75]
- Barnyardgrass plant response rating [1, 11]: 0
- Barnyardgrass plant response rating [1, 12]: 10
- Plant response rating, Barnyardgrass [1, 13]: 10
- Plant response rating, Barnyardgrass [1, 14]: 20
- Wheat plant response rating [2, 11]: 0
- Wheat plant response rating [2, 12]: 0
- Plant response rating, Wheat [2, 13]: 0
- Plant response rating, Wheat [2, 14]: 10
- Corn plant response rating (corn (Zea mays); [11]): 0
- Corn plant response rating (corn (Zea mays); [12]): 10
- Plant response rating, Corn (corn (Zea mays); [13]): 0
- Plant response rating, Corn (corn (Zea mays); [14]): 0
- Plant response rating, Rice (rice (Oryza sativa); [15]): 0
- Plant response rating, Rice (rice (Oryza sativa); [16]): 0
- Plant response rating, Rice (rice (Oryza sativa); [17]): 0
- Plant response rating, Rice (rice (Oryza sativa); Flood, 31 g ai/ha): 0
- Plant response rating, Barnyardgrass [3, 15]: 0
- Plant response rating, Barnyardgrass [3, 16]: 0
- Plant response rating, Barnyardgrass [3, 17]: 0
- Plant response rating, Barnyardgrass ([3]; Flood, 31 g ai/ha): 0
- Velvetleaf plant response rating [4, 11]: 10
- Velvetleaf plant response rating [4, 12]: 10
- Plant response rating, Velvetleaf [4, 13]: 0
- Plant response rating, Velvetleaf [4, 14]: 0
- Foxtail, Giant plant response rating [5, 11]: 10
- Foxtail, Giant plant response rating [5, 12]: 20
- Plant response rating, Foxtail, Giant [5, 13]: 50
- Plant response rating, Foxtail, Giant [5, 14]: 90
- Crabgrass, Large plant response rating [6, 11]: 10
- Crabgrass, Large plant response rating [6, 12]: 20
- Plant response rating, Crabgrass, Large [6, 13]: 20
- Plant response rating, Crabgrass, Large [6, 14]: 70
- Morningglory plant response rating [7, 11]: 0
- Morningglory plant response rating [7, 12]: 30
- Pigweed plant response rating [8, 11]: 30
- Pigweed plant response rating [8, 12]: 60
- Plant response rating, Pigweed [8, 13]: 30
- Plant response rating, Pigweed [8, 14]: 40
- Plant response rating, Sedge, Umbrella [9, 15]: 0
- Plant response rating, Sedge, Umbrella [9, 16]: 0
- Plant response rating, Sedge, Umbrella [9, 17]: 0
- Plant response rating, Sedge, Umbrella ([9]; Flood, 31 g ai/ha): 0
- Plant response rating, Ducksalad [10, 15]: 0
- Plant response rating, Ducksalad [10, 16]: 0
- Plant response rating, Ducksalad [10, 17]: 0
- Plant response rating, Ducksalad ([10]; Flood, 31 g ai/ha): 0

SMILES: Cc1nn(-c2ccc(Br)cc2)nc1C(=O)c1cccc(C(F)(F)F)c1 [Compound 92]
- Barnyardgrass plant response rating [1, 11]: 0
- Barnyardgrass plant response rating [1, 12]: 10
- Plant response rating, Barnyardgrass [1, 13]: 0
- Plant response rating, Barnyardgrass [1, 14]: 0
- Wheat plant response rating [2, 11]: 0
- Wheat plant response rating [2, 12]: 10
- Plant response rating, Wheat [2, 18]: 0
- Plant response rating, Wheat [2, 14]: 0
- Corn plant response rating (corn (Zea mays); [11]): 10
- Corn plant response rating (corn (Zea mays); [12]): 10
- Plant response rating, Corn (corn (Zea mays); [13]): 0
- Plant response rating, Corn (corn (Zea mays); [14]): 0
- Plant response rating, Rice (rice (Oryza sativa); [16]): 0
- Plant response rating, Rice (rice (Oryza sativa); [17]): 0
- Plant response rating, Rice (rice (Oryza sativa); Flood, 31 g ai/ha): 0
- Plant response rating, Rice (rice (Oryza sativa); Flood, 62 g ai/ha): 0
- Plant response rating, Barnyardgrass [3, 16]: 0
- Plant response rating, Barnyardgrass [3, 17]: 0
- Plant response rating, Barnyardgrass ([3]; Flood, 31 g ai/ha): 0
- Plant response rating, Barnyardgrass ([3]; Flood, 62 g ai/ha): 0
- Velvetleaf plant response rating [4, 11]: 20
- Velvetleaf plant response rating [4, 12]: 20
- Plant response rating, Velvetleaf [4, 18]: 0
- Plant response rating, Velvetleaf [4, 14]: 0
- Foxtail, Giant plant response rating [5, 11]: 10
- Foxtail, Giant plant response rating [5, 12]: 20
- Plant response rating, Foxtail, Giant [5, 18]: 10
- Plant response rating, Foxtail, Giant [5, 14]: 20
- Crabgrass, Large plant response rating [6, 11]: 10
- Crabgrass, Large plant response rating [6, 12]: 30
- Plant response rating, Crabgrass, Large [6, 13]: 10
- Plant response rating, Crabgrass, Large [6, 14]: 40
- Morningglory plant response rating [7, 11]: 10
- Morningglory plant response rating [7, 12]: 30
- Plant response rating, Morningglory [7, 18]: 0
- Plant response rating, Morningglory [7, 14]: 0
- Pigweed plant response rating [8, 11]: 30
- Pigweed plant response rating [8, 12]: 90
- Plant response rating, Pigweed [8, 18]: 0
- Plant response rating, Pigweed [8, 14]: 10
- Plant response rating, Sedge, Umbrella [9, 16]: 0
- Plant response rating, Sedge, Umbrella [9, 17]: 0
- Plant response rating, Sedge, Umbrella ([9]; Flood, 31 g ai/ha): 0
- Plant response rating, Sedge, Umbrella ([9]; Flood, 62 g ai/ha): 0
- Plant response rating, Ducksalad [10, 16]: 0
- Plant response rating, Ducksalad [10, 17]: 0
- Plant response rating, Ducksalad ([10]; Flood, 31 g ai/ha): 0
- Plant response rating, Ducksalad ([10]; Flood, 62 g ai/ha): 0

SMILES: Cc1nn(-c2cncc(C(F)(F)F)c2)nc1C(=O)c1cccc(C(F)(F)F)c1 [Compound 66]
- Barnyardgrass plant response rating [1, 11]: 0
- Barnyardgrass plant response rating [1, 12]: 10
- Plant response rating, Barnyardgrass [1, 13]: 0
- Plant response rating, Barnyardgrass [1, 14]: 0
- Wheat plant response rating [2, 11]: 0
- Wheat plant response rating [2, 12]: 10
- Plant response rating, Wheat [2, 13]: 0
- Plant response rating, Wheat [2, 14]: 0
- Corn plant response rating (corn (Zea mays); [11]): 0
- Corn plant response rating (corn (Zea mays); [12]): 10
- Plant response rating, Corn (corn (Zea mays); [13]): 0
- Plant response rating, Corn (corn (Zea mays); [14]): 0
- Plant response rating, Rice (rice (Oryza sativa); [15]): 0
- Plant response rating, Rice (rice (Oryza sativa); [17]): 0
- Plant response rating, Barnyardgrass [3, 15]: 0
- Plant response rating, Barnyardgrass [3, 17]: 0
- Velvetleaf plant response rating [4, 11]: 0
- Velvetleaf plant response rating [4, 12]: 10
- Plant response rating, Velvetleaf [4, 13]: 0
- Plant response rating, Velvetleaf [4, 14]: 0
- Foxtail, Giant plant response rating [5, 11]: 0
- Foxtail, Giant plant response rating [5, 12]: 10
- Plant response rating, Foxtail, Giant [5, 13]: 10
- Plant response rating, Foxtail, Giant [5, 14]: 70
- Crabgrass, Large plant response rating [6, 11]: 10
- Crabgrass, Large plant response rating [6, 12]: 10
- Plant response rating, Crabgrass, Large [6, 13]: 10
- Plant response rating, Crabgrass, Large [6, 14]: 50
- Morningglory plant response rating [7, 11]: 0
- Morningglory plant response rating [7, 12]: 10
- Plant response rating, Morningglory [7, 13]: 0
- Plant response rating, Morningglory [7, 14]: 0
- Pigweed plant response rating [8, 11]: 10
- Pigweed plant response rating [8, 12]: 30
- Plant response rating, Pigweed [8, 13]: 0
- Plant response rating, Pigweed [8, 14]: 10
- Plant response rating, Sedge, Umbrella [9, 15]: 0
- Plant response rating, Sedge, Umbrella [9, 17]: 0
- Plant response rating, Ducksalad [10, 15]: 0
- Plant response rating, Ducksalad [10, 17]: 0
